Like-named read-outs stand apart in the source and are kept apart here.
Assays:
[1] = tested on: Pseudomonas aeruginosa efflux+ (MB9798), IMP-1; assay type: cell-based; conditions: concentration restoring susceptibility to imipenem at 2 μg/mL in the presence of a class A, C, D serine β-lactamase inhibitor closely related to relebactam
Procedure, shortened: (§1)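 Microbroth MIC tests in PAO1-background strains with fixed imipenem and/or ceftazidime, usually at the CLSI breakpoint, plus fixed class A/C β-lactamase inhibitor against AmpC. MBL inhibitor titrated; concentration restoring susceptibility recorded and compared as fold difference between efflux+ MB9798 and efflux− MB9799.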

[2] = tested on: Pseudomonas aeruginosa efflux− (MB9799), IMP-1; assay type: cell-based; conditions: concentration restoring susceptibility to imipenem at 2 μg/mL in the presence of a class A, C, D serine β-lactamase inhibitor closely related to relebactam
Procedure, shortened: as §1

[3] = tested on: Pseudomonas aeruginosa MB9798 vs MB9799; conditions: ratio MITC95 PA_9798/MITC95 PA_9799
Procedure, shortened: as §1

[4] = target: IMP-1 (Serratia marcescens, UniProt P52699); test: biochemical; assay type: biochemical; conditions: fluorescence assay, CCF2-FA substrate, 2 pM enzyme, 2 hours at 25° C.; read-out: IMP-1 IC50
Sequence of IMP-1 (P52699 whole entry, looked up, species assumed): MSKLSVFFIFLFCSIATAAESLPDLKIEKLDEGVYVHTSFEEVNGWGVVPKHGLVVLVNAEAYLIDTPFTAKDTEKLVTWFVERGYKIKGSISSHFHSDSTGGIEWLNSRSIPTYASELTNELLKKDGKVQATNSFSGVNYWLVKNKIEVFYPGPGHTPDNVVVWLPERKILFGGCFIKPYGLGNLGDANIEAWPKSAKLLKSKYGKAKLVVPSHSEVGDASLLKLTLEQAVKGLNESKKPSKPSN
Procedure, shortened: (§2)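 Fluorescence assay of metallo-β-lactamase activity using CCF2-FA, a cephalosporin-linked 7-hydroxycoumarin–fluorescein substrate. Inhibitor, enzyme and substrate were incubated together for 2 hours at 25° C. IC50 came from a 4-parameter fit of inhibition versus inhibitor concentration.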

[5] = target: NDM-1 (Klebsiella pneumoniae, UniProt C7C422); test: biochemical; assay type: biochemical; conditions: fluorescence assay, CCF2-FA substrate, 1 pM enzyme, 2 hours at 25° C.; read-out: NDM-1 IC50
Sequence of NDM-1 (C7C422 whole entry, looked up, species assumed): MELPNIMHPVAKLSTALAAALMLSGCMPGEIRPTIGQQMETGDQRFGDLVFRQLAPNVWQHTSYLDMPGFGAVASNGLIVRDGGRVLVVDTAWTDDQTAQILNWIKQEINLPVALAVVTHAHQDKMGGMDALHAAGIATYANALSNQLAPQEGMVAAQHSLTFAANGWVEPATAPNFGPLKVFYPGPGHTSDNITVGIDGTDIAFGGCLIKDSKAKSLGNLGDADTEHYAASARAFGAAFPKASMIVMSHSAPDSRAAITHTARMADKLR
Procedure, shortened: as §2

[6] = target: VIM-1 (Pseudomonas aeruginosa (strain ATCC 15692 / DSM 22644 / CIP 104116 / JCM 14847 / LMG 12228 / 1C / PRS 101 / PAO1), UniProt A0A0F7KYQ8); test: biochemical; conditions: CCF2-FA substrate, 30 pM enzyme, 2 hours at 25° C.
Procedure, shortened: as §2

[7] = tested on: Klebsiella pneumoniae expressing VIM-1 (IHMA599644); assay type: cell-based; conditions: with imipenem 1 μg/ml; 95% inhibition of bacterial growth
Procedure, shortened: (§3)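 Clinical strains grown overnight on blood agar at 35°C, colonies suspended in saline, diluted 1:100 into 1.1×CAMHB. Test compound titrated with imipenem at 1 μg/ml; incubated 22–24 h at 35°C, growth read by absorbance.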

[8] = tested on: Serratia marcescens expressing IMP-1 (CL5741); assay type: cell-based; conditions: with imipenem 1 μg/ml; 95% inhibition of bacterial growth
Procedure, shortened: as §3

[9] = tested on: Escherichia coli expressing NDM-1 (CLB30005, CLB30016); assay type: cell-based; conditions: with imipenem 1 μg/ml; 95% inhibition of bacterial growth
Procedure, shortened: as §3

[10] = fluorescence assay, read-out: VIM-1 IC50

| Structure (SMILES) | P. aeruginosa expressing IMP-1, efflux + (MB9798) MITC95 [1] [µM] | P. aeruginosa expressing IMP-1, efflux − (MB9799) MITC95 [2] [µM] | Efflux ratio [3] | IC50 [4] [nM] | IC50 [5] [nM] | IC50 ([6]; VIM-1 IC50, fluorescence assay) [nM] | Klebsiella pneumoniae expressing VIM-1 (IHMA599644) MITC95 [7] [µM] | Serratia marcescens expressing IMP-1 (CL5741) MITC95 [8] [µM] | Escherichia coli expressing NDM-1 (CLB30016) MITC95 [9] [µM] | IC50 [6, 10] [nM] |
| --- | --- | --- | --- | --- | --- | --- | --- | --- | --- | --- |
| NCCCNS(=O)(=O)c1ccc(-c2cccc3[nH]c(N)nc23)c(-c2nn[nH]n2)c1S(N)(=O)=O [Example 182, 4-(2-amino-1H-benzo[d]imidazol-4-yl)-N1-(3-aminopropyl)-3-(2H-tetrazol-5-yl)benzene-1,2-disulfonamide] | 0.3438 | 0.4271 | 0.80 | 0.453 | 0.0393 | 0.0904 | 0.6875 | 0.5573 | 0.2578 |  |
| Cn1c(N)nc2c(-c3ccc(S(=O)(=O)NCCCN)c(S(N)(=O)=O)c3-c3nn[nH]n3)cccc21 [Example 183, 4-(2-amino-1-methyl-1H-benzo[d]imidazol-4-yl)-N^1-(3-aminopropyl)-3-(2H-tetrazol-5-yl)benzene-1,2-disulfonamide] | 0.7813 | 0.7813 | 1.00 | 0.338 | 0.0539 |  | 0.7813 | 0.7813 | 0.3906 | 0.11 |
| C[C@H](N)CNS(=O)(=O)c1ccc(-c2cccc3[nH]c(N)nc23)c(-c2nn[nH]n2)c1S(N)(=O)=O [Example 184, 4-(2-amino-1H-benzo[d]imidazol-4-yl)-N1-((S)-2-aminopropyl)-3-(2H-tetrazol-5-yl)benzene-1,2-disulfonamide] | 0.7813 | 0.7813 | 1.00 | 0.673 | 0.0347 |  | 0.7813 | 0.7813 | 0.3906 | 0.189 |
| C[C@@H](N)CNS(=O)(=O)c1ccc(-c2cccc3[nH]c(N)nc23)c(-c2nn[nH]n2)c1S(N)(=O)=O [Example 185, 4-(2-amino-1H-benzo[d]imidazol-4-yl)-N1-((R)-2-aminopropyl)-3-(2H-tetrazol-5-yl)benzene-1,2-disulfonamide] | 0.3844 | 0.5906 | 0.65 | 0.524 | 0.0476 |  | 1.025 | 0.7688 | 0.2135 | 0.19 |
| C[C@@H](CN)NS(=O)(=O)c1ccc(-c2cccc3[nH]c(N)nc23)c(-c2nn[nH]n2)c1S(N)(=O)=O [Example 186] | 1.563 | 0.7813 | 2.00 | 4.09 | 0.366 | 0.901 | 1.563 | 1.563 | 0.7813 |  |
| C[C@H](CN)NS(=O)(=O)c1ccc(-c2cccc3[nH]c(N)nc23)c(-c2nn[nH]n2)c1S(N)(=O)=O [Example 187, 4-(2-amino-1H-benzo[d]imidazol-4-yl)-N^1—((R)-1-aminopropan-2-yl)-3-(2H-tetrazol-5-yl)benzene-1,2-disulfonamide] | 0.3906 | 0.7813 | 0.50 | 0.23 | 0.0212 | 0.0982 | 1.172 | 0.7813 | 0.5859 |  |
| NC(=O)[C@H](N)CNS(=O)(=O)c1ccc(-c2cccc3[nH]c(N)nc23)c(-c2nn[nH]n2)c1S(N)(=O)=O [Example 188, (2R)-2-amino-3-(4-(2-amino-1H-benzo[d]imidazol-4-yl)-2-sulfamoyl-3-(2H-tetrazol-5-yl)phenylsulfonamido)propanamide] | 0.7813 | 1.563 | 0.50 | 0.613 | 0.0756 |  | 3.125 | 1.563 | 1.563 | 0.213 |
| NC(=O)[C@@H](N)CNS(=O)(=O)c1ccc(-c2cccc3[nH]c(N)nc23)c(-c2nn[nH]n2)c1S(N)(=O)=O [Example 189, (2S)-2-amino-3-(4-(2-amino-1H-benzo[d]imidazol-4-yl)-2-sulfamoyl-3-(2H-tetrazol-5-yl)phenylsulfonamido)propanamide] | 0.7813 | 1.563 | 0.50 | 0.615 | 0.0718 |  | 3.125 | 1.563 | 0.7813 | 0.216 |
| Nc1nc2c(-c3ccc(S(=O)(=O)NC[C@@H](N)CO)c(S(N)(=O)=O)c3-c3nn[nH]n3)cccc2[nH]1 [Example 190, 4-(2-amino-1H-benzo[d]imidazol-4-yl)-N1-((R)-2-amino-3-hydroxypropyl)-3-(2H-tetrazol-5-yl)benzene-1,2-disulfonamide] | 0.3906 | 0.7813 | 0.50 | 0.624 | 0.059 |  | 0.7813 | 0.3906 | 0.3906 | 0.281 |
| Nc1nc2c(-c3ccc(S(=O)(=O)NC[C@H](N)CO)c(S(N)(=O)=O)c3-c3nn[nH]n3)cccc2[nH]1 [Example 191, 4-(2-amino-1H-benzo[d]imidazol-4-yl)-N^1—((S)-2-amino-3-hydroxypropyl)-3-(2H-tetrazol-5-yl)benzene-1,2-disulfonamide] | 0.4453 | 0.4453 | 1.00 | 0.433 | 0.0469 |  | 0.8906 | 0.8906 | 0.25 | 0.173 |
| NS(=O)(=O)c1c(S(=O)(=O)N[C@@H]2CCNC2)ccc(-c2cccc3[nH]cnc23)c1-c1nn[nH]n1 [Example 193, 4-(1H-benzo[d]imidazol-4-yl)-N1-((R)-pyrrolidin-3-yl)-3-(2H-tetrazol-5-yl)benzene-1,2-disulfonamide] | 0.7813 | 0.7813 | 1.00 | 0.211 | 0.0392 |  | 2.344 | 1.563 | 1.563 | 0.113 |
| Nc1ccc(-c2ccc(S(=O)(=O)N[C@@H]3CCNC3)c(S(N)(=O)=O)c2-c2nn[nH]n2)cn1 [Example 194, (R)-4-(6-aminopyridin-3-yl)-N^1-(pyrrolidin-3-yl)-3-(2H-tetrazol-5-yl)benzene-1,2-disulfonamide] | 0.6875 | 0.8542 | 0.80 | 0.242 | 0.105 |  | 2.229 | 0.5573 | 0.3203 | 0.123 |
